US20040142952A1, “Triazoloquinazoline and pyrazolotriazolopyrimidine derivatives, medicinal compositions, adenosine a3 receptor affinity agents, ocular tension lowering agents, preparations for preventing and treating glaucoma and method of lowering ocular tension” (priority 2001, published 2004)

Row | SMILES | melting point [°C]
1 | CCCCc1nc2nncc-2c2nc(-c3ccc([N+](=O)[O-])cc3)[nH]n12 [Example 17, 5-n-butyl-2-(4-nitrophenyl)pyrazolo[4,3-e]-1,2,4-triazolo[1,5-c]pyrimidine] | 279 to 280.5
2 | c1ccc(-c2nc3c4cnnc-4nc(-c4ccccc4)n3[nH]2)cc1 [Example 59, 2,5-diphenylpyrazolo[4,3-e]-1,2,4-triazolo[1,5-c]pyrimidine] | 272.5 to 275
3 | CCc1nc2nncc-2c2nc(-c3ccc(C)cc3)[nH]n12 [Example 65, 5-ethyl-2-(4-methylphenyl)pyrazolo[4,3-e]-1,2,4-triazolo[1,5-c]pyrimidine] | > 280
4 | CCCCc1nc2ccccc2c2nc(-c3ccccc3Cl)nn12 [Example 24, 5-n-butyl-2-(2-chlorophenyl)-1,2,4-triazolo[1,5-c]quinazoline] | 104.5 to 105.55
5 | CCc1nc2ccccc2c2nc(-c3ccc(F)cc3)nn12 [Example 67, 5-ethyl-2-(4-fluorophenyl)-1,2,4-triazolo[1,5-c]quinazoline] | 195 to 196
6 | CCCc1nc2ccccc2c2nc(-c3ccccc3)nn12 [Example 21, 2-phenyl-5-propyl-1,2,4-triazolo[1,5-c]quinazoline] | 143 to 144
7 | CCCCc1nc2ccc(Br)cc2c2nc(-c3ccccc3)nn12 [Example 47, 9-bromo-5-n-butyl-2-phenyl-1,2,4-triazolo[1,5-c]quinazoline] | 129.5 to 132.5
8 | CCCCc1nc2ccc(Cl)cc2c2nc(-c3ccc(C)cc3)nn12 [Example 77, 5-n-butyl-9-chloro-2-(4-methylphenyl)-1,2,4-triazolo[1,5-c]quinazoline] | 141 to 143
9 | CCCCc1nc2nncc-2c2nc(-c3ccc(O)cc3)[nH]n12 [Example 12, 5-n-butyl-2-(4-hydroxyphenyl)pyrazolo[4,3-e]-1,2,4-triazolo[1,5-c]pyrimidine] | > 280
10 | CCCCc1nc2ccccc2c2nc(-c3ccc(N(C)C)cc3)nn12 [Example 38, 5-n-butyl-2-[4-(N,N-dimethylamino)phenyl]-1,2,4-triazolo[1,5-c]quinazoline] | 148.5 to 150
11 | CCCCc1nc2ccccc2c2nc(-c3ccc([N+](=O)[O-])cc3)nn12 [Example 39, 5-n-butyl-2-(4-nitrophenyl)-1,2,4-triazolo[1,5-c]quinazoline] | 194 to 195
12 | CCCCc1nc2ccccc2c2nc(-c3cccs3)nn12 [Example 42, 5-n-butyl-2-(2-thienyl)-1,2,4-triazolo[1,5-c]quinazoline] | 147 to 149.5
13 | CCCCc1nc2cc(Cl)ccc2c2nc(-c3ccc(C)cc3)nn12 [Example 83, 5-n-butyl-8-chloro-2-(4-methylphenyl)-1,2,4-triazolo[1,5-c]quinazoline] | 134 to 134.5
14 | CCCCc1nc2ccccc2c2nc(-c3cccc(Cl)c3)nn12 [Example 25, 5-n-butyl-2-(3-chlorophenyl)-1,2,4-triazolo[1,5-c]quinazoline] | 129 to 131
15 | CCCCc1nc2ccccc2c2nc(-c3cccnc3)nn12 [Example 40, 5-n-butyl-2-(3-pyridyl)-1,2,4-triazolo[1,5-c]quinazoline] | 140 to 141.5
16 | CCCCc1nc2nncc-2c2nc(-c3ccco3)[nH]n12 [Example 19, 5-n-butyl-2-(2-furyl)pyrazolo[4,3-e]-1,2,4-triazolo[1,5-c]pyrimidine] | 253 to 254.5
17 | CCCCc1nc2nncc-2c2nc(-c3cccs3)[nH]n12 [Example 20, 5-n-butyl-2-(2-thienyl)pyrazolo[4,3-e]-1,2,4-triazolo[1,5-c]pyrimidine] | 214 to 216
18 | CCCCc1nc2cccc(F)c2c2nc(-c3ccccc3)nn12 [Example 43, 5-n-butyl-10-fluoro-2-phenyl-1,2,4-triazolo[1,5-c]quinazoline] | 123 to 124
19 | CCc1nc2ccccc2c2nc(-c3ccc(OC)cc3)nn12 [Example 71, 5-ethyl-2-(4-methoxyphenyl)-1,2,4-triazolo[1,5-c]quinazoline] | 167.5 to 168
20 | CCCCc1nc2ccccc2c2nc(-c3ccc(SC)cc3)nn12 [Example 58, 5-n-butyl-2-(4-methylthiophenyl)-1,2,4-triazolo[1,5-c]quinazoline] | 140.5 to 141.5
21 | CCCCc1nc2ccccc2c2nc(-c3cccc(OC)c3)nn12 [Example 57, 5-n-butyl-2-(3-methoxyphenyl)-1,2,4-triazolo[1,5-c]quinazoline] | 118 to 119

Next, values leading:

Row | melting point [°C] | SMILES
22 | 108 to 109 | CCCCc1nc2c(cnn2Cc2ccccc2)c2nc(-c3ccccc3)nn12 [Example 116, 7-benzyl-5-n-butyl-2-phenylpyrazolo[4,3-e]-1,2,4-triazolo[1,5-c]pyrimidine]
23 | 189 to 190.5 | CCCCc1nc2nn(CCO)cc2c2nc(-c3ccc(Cl)cc3)nn12 [Example 139, 5-n-butyl-2-(4-chlorophenyl)-8-(2-hydroxyethyl)pyrazolo[4,3-e]-1,2,4-triazolo[1,5-c]pyrimidine]
24 | 92 to 93 | CCCCCCc1nc2ccccc2c2nc(-c3ccccc3)nn12 [Example 94, 5-n-hexyl-2-phenyl-1,2,4-triazolo[1,5-c]quinazoline]
25 | 184 to 185 | CCCCc1nc2nn(C)cc2c2nc(-c3ccccc3)nn12 [Example 111, 5-n-butyl-8-methyl-2-phenylpyrazolo[4,3-e]-1,2,4-triazolo[1,5-c]pyrimidine]
26 | 128 to 129 | COC(=O)CCCc1nc2ccccc2c2nc(-c3ccc(Cl)cc3)nn12 [Example 99, methyl 4-[2-(4-chlorophenyl)-1,2,4-triazolo[1,5-c]quinazolin-5-yl]butyrate]
27 | 247.5 to 249 | COc1ccc(-c2nc3c4cnnc-4nc(CCCC(=O)O)n3[nH]2)cc1 [Example 148, 4-[2-(4-methoxyphenyl)pyrazolo[4,3-e]-1,2,4-triazolo[1,5-c]pyrimidin-5-yl]butyric acid]
28 | 213 to 214 | CCc1nc2ccc(Cl)cc2c2nc(-c3ccc(Cl)cc3)nn12 [Example 86, 9-chloro-2-(4-chlorophenyl)-5-ethyl-1,2,4-triazolo[1,5-c]quinazoline]
29 | 147.5 to 148.5 | CCCCc1nc2c(cnn2C)c2nc(-c3ccc(Cl)cc3)nn12 [Example 118, 2-(4-chlorophenyl)-5-n-butyl-7-methylpyrazolo[4,3-e]-1,2,4-triazolo[1,5-c]pyrimidine]
30 | 196.5 to 197 | COC(=O)CCCc1nc2nncc-2c2nc(-c3ccc(C)cc3)[nH]n12 [Example 92, methyl 4-[2-(4-methylphenyl)pyrazolo[4,3-e]-1,2,4-triazolo[1,5-c]pyrimidin-5-yl]butyrate]
31 | 118 to 119.5 | CCCCCc1nc2ccccc2c2nc(-c3ccc(Cl)cc3)nn12 [Example 103, 2-(4-chlorophenyl)-5-n-pentyl-1,2,4-triazolo[1,5-c]quinazoline]
32 | 133.5 to 134 | CCCCCc1nc2ccccc2c2nc(-c3ccc(F)cc3)nn12 [Example 95, 2-(4-fluorophenyl)-5-n-pentyl-1,2,4-triazolo[1,5-c]quinazoline]
33 | 106.5 to 107.5 | CCCCc1nc2nn(CCC)cc2c2nc(-c3ccc(F)cc3)nn12 [Example 125, 5-n-butyl-2-(4-fluorophenyl)-8-n-propylpyrazolo[4,3-e]-1,2,4-triazolo[1,5-c]pyrimidine]
34 | 156 to 157 | CCCCc1nc2c(cnn2C)c2nc(-c3ccc(C)cc3)nn12 [Example 120, 5-n-butyl-7-methyl-2-(4-methylphenyl)pyrazolo[4,3-e]-1,2,4-triazolo[1,5-c]pyrimidine]
35 | 125 to 126 | COC(=O)CCCc1nc2ccccc2c2nc(-c3ccc(Br)cc3)nn12 [Example 97, methyl 4-[2-(4-bromophenyl)-1,2,4-triazolo[1,5-c]quinazolin-5-yl]butyrate]
36 | 187.5 to 188.5 | COC(=O)CCCc1nc2nncc-2c2nc(-c3ccc(OC)cc3)[nH]n12 [Example 90, methyl 4-[2-(4-methoxyphenyl)pyrazolo[4,3-e]-1,2,4-triazolo[1,5-c]pyrimidin-5-yl]butyrate]
37 | 164 to 165 | CCCCc1nc2nn(CC(=O)OCC)cc2c2nc(-c3ccc(F)cc3)nn12 [Example 131, ethyl 2-[5-n-butyl-2-(4-fluorophenyl)pyrazolo[4,3-e]-1,2,4-triazolo[1,5-c]pyrimidin-8-yl]acetate]
38 | 128 to 129 | CCCCc1nc2nn(CC)cc2c2nc(-c3ccc(C)cc3)nn12 [Example 143, 5-n-butyl-8-ethyl-2-(4-methylphenyl)pyrazolo[4,3-e]-1,2,4-triazolo[1,5-c]pyrimidine]
39 | 100.5 to 101.5 | CCCCc1nc2c(cnn2CCC)c2nc(-c3ccccc3)nn12 [Example 112, 5-n-butyl-2-phenyl-7-n-propylpyrazolo[4,3-e]-1,2,4-triazolo[1,5-c]pyrimidine]
40 | 205.5 to 206 | CCCCc1nc2ccc([N+](=O)[O-])cc2c2nc(-c3ccccc3)nn12 [Example 85, 5-n-butyl-9-nitro-2-phenyl-1,2,4-triazolo[1,5-c]quinazoline]
41 | 122.5 to 123 | CCCCc1nc2nn(CC)cc2c2nc(-c3ccccc3)nn12 [Example 115, 5-n-butyl-8-ethyl-2-phenylpyrazolo[4,3-e]-1,2,4-triazolo[1,5-c]pyrimidine]
42 | 167 to 168 | COC(=O)CCCc1nc2ccccc2c2nc(-c3ccc(F)cc3)nn12 [Example 98, methyl 4-[2-(4-fluorophenyl)-1,2,4-triazolo[1,5-c]quinazolin-5-yl]butyrate]
43 | 219 to 220 | O=C(O)CCCc1nc2ccccc2c2nc(-c3ccc(Br)cc3)nn12 [Example 154, 4-[2-(4-bromophenyl)-1,2,4-triazolo[1,5-c]quinazolin-5-yl]butyric acid]
44 | 136 to 137 | CCCCc1nc2nn(CC(=O)OCC)cc2c2nc(-c3ccccc3)nn12 [Example 129, ethyl 2-(5-n-butyl-2-phenylpyrazolo[4,3-e]-1,2,4-triazolo[1,5-c]pyrimidin-8-yl)acetate]
45 | 146 to 147 | CCCCc1nc2c(cnn2CC)c2nc(-c3ccccc3)nn12 [Example 114, 5-n-butyl-7-ethyl-2-phenylpyrazolo[4,3-e]-1,2,4-triazolo[1,5-c]pyrimidine]
